The values below come from US8921382B2, “Thiazolo[5,4-d] pyrimidines and their use as agrochemicals” (Dow AgroSciences, LLC., priority 2010, dated 2014).

Holding throughout (assay type): in vivo
Assay [1] has as its system Puccinia recondita tritici. As to the kind of experiment: Leaf Rust of Wheat foliar spray test, inoculated one day after treatment. The following applies: applied to foliage at 200 ppm, wheat plants, read-out: Activity against Fungal Diseases PUCCRT (percent disease control). Here is the method:
(§1) Fungicide activity data are the level (in percent) at which the given disease was controlled when the given compound was applied to the foliage of the plants at 200 ppm. In a few cases (noted in the table) the compound was applied to the plants at 25 ppm or 3 ppm. The plants were inoculated with the fungus one day after treatment. ***=80-100% control; **=50-79% control; *=0-49% control. […] The activity of the compounds as effective fungicides was determined by applying the compounds to plants and observing control of fungal disease. […] All plants were inoculated with spores of the fungus the day after treatment, then incubated in an environment conducive to disease development. Disease severity was evaluated 4 to 25 days (d) later, depending on the speed of disease development. The following experiments were performed in the laboratory to determine the fungicidal efficacy of the compounds of the invention. […] Each pot contained 3-8 seedlings. These plants were sprayed until wet with the formulated test compounds. On the following day, the leaves were inoculated with an aqueous spore suspension of Puccinia recondita tritici and the plants were kept in high humidity overnight to permit spores to germinate and infect the leaf. The plants were then transferred to a greenhouse until disease developed on untreated control plants. […] The effectiveness of the test compounds at controlling disease when sprayed on leaves was determined by assessing the severity of disease on treated plants, then converting the severity to percent control based on the level of disease on untreated, inoculated plants.

Assay [2] relates to Septoria tritici. In words: Septoria Blotch of Wheat foliar spray test, inoculated one day after treatment. The following applies: Zymoseptoria tritici, wheat plants, read-out: Activity against Fungal Diseases SEPTTR (percent disease control); for pest or weed control at 200 ppm: applied to foliage at 200 ppm; for pest or weed control at 25 ppm: Tested at 25 ppm. How it is done:
as §1, with “3-10” for “3-8”, “compound.” for “compounds.”, “Septoria” for “Puccinia recondita”, “(one day in a dark dew chamber followed by two days in a lighted dew chamber)” for “overnight”

In assay [3] the test system is Pseudoperonospora cubensis. In words: Cucumber Downy Mildew foliar spray test, inoculated one day after treatment. The following applies: applied to foliage at 200 ppm, cucumber plants, read-out: Activity against Fungal Diseases PSPECU (percent disease control). How it is done: Fungicide activity data are the level (in percent) at which the given disease was controlled when the given compound was applied to the foliage of the plants at 200 ppm. In a few cases (noted in the table) the compound was applied to the plants at 25 ppm or 3 ppm. The plants were inoculated with the fungus one day after treatment. ***=80-100% control; **=50-79% control; *=0-49% control. […] The activity of the compounds as effective fungicides was determined by applying the compounds to plants and observing control of fungal disease. […] All plants were inoculated with spores of the fungus the day after treatment, then incubated in an environment conducive to disease development. Disease severity was evaluated 4 to 25 days (d) later, depending on the speed of disease development. The following experiments were performed in the laboratory to determine the fungicidal efficacy of the compounds of the invention. Cucumber Downy Mildew (causal agent Pseudoperonospora cubensis; Bayer code […]): Cucumber plants (variety 'Bush Champion' or 'Bush Pickle Hybrid') were grown from seed in a soil-less peat-based potting mixture (Metromix) until the first true leaf was 20-80% expanded. Each pot contained 1 seedling. These plants were sprayed until wet with the formulated test compound. On the following day, the leaves were inoculated with an aqueous suspension of downy mildew sporangia and the plants were kept in high humidity for one day to permit sporangia to germinate and infect the leaf. The plants were then incubated in a growth chamber until disease developed on untreated control plants. […] The effectiveness of the test compounds at controlling disease when sprayed on leaves was determined by assessing the severity of disease on treated plants, then converting the severity to percent control based on the level of disease on untreated, inoculated plants.

For assay [4], the system named is Pyricularia oryzae. As to the kind of experiment: whole plant or invertebrate. The note with it: foliar, read-out: Activity against Fungal Diseases PYRIOR (percent disease control).

For `Cc1cc(Oc2cc(C(F)(F)F)ccn2)ccc1CCNc1ncnc2scnc12` [Compound 59, {2-[2-methyl-4-(4-trifluoromethylpyridin-2-yloxy)-phenyl]-ethyl}-thiazolo[5,4-d]pyrimidin-7-ylamine], the pest or weed control at 200 ppm in assay [1], in assay [2], in assay [3] and in assay [4] was 80 to 100% in each case.
For `FC(F)(F)c1cc(Oc2ccc(CCNc3ncnc4scnc34)cc2)ccn1` [Compound 40, thiazolo[5,4-d]pyrimidin-7-yl-{2-[4-(2-trifluoromethylpyridin-4-yloxy)-phenyl]-ethyl}-amine], the pest or weed control at 200 ppm in assay [1], in assay [2], in assay [3] and in assay [4] was 80 to 100% throughout.
As for `Cc1cc(Oc2cc(C(F)(F)F)ccn2)ccc1OCCNc1ncnc2scnc12` [Compound 9, {2-[2-methyl-4-(4-trifluoromethylpyridin-2-yloxy)-phenoxy]-ethyl}-thiazolo[5,4-d]pyrimidin-7-ylamine], the pest or weed control at 200 ppm in assay [1], in assay [2], in assay [3] and in assay [4] was 80 to 100% each time.
In the case of `FC(F)(F)c1cccnc1Oc1ccc(CCNc2ncnc3scnc23)cc1` [Compound 8, thiazolo[5,4-d]pyrimidin-7-yl-{2-[4-(3-trifluoromethylpyridin-2-yloxy)-phenyl]-ethyl}-amine], the pest or weed control at 200 ppm in assay [1], in assay [2], in assay [3] and in assay [4] was 80 to 100% throughout.
With `Cc1cc(CCNc2ncnc3scnc23)ccc1Oc1c(Cl)cnc(C(F)(F)F)c1Cl` [Compound 49, {2-[4-(3,5-dichloro-2-trifluoromethylpyridin-4-yloxy)-3-methylphenyl]-ethyl}-thiazolo[5,4-d]pyrimidin-7-ylamine], the pest or weed control at 200 ppm in assay [1] is 50 to 79%; in assay [3], 50 to 79%; in assay [4], 80 to 100%. The pest or weed control at 25 ppm in assay [2] was in the range of 0 to 49%.
With `FC(F)(F)c1cc(Oc2ccc(CCNc3ncnc4scnc34)cc2)ncn1` [Compound 52, thiazolo[5,4-d]pyrimidin-7-yl-{2-[4-(6-trifluoromethylpyrimidin-4-yloxy)-phenyl]-ethyl}-amine], the pest or weed control at 200 ppm in assay [1], in assay [3] and in assay [4] was 80 to 100% throughout. In addition, the pest or weed control at 25 ppm in assay [2] is 80 to 100%.
As to `Cc1cc(CCNc2ncnc3scnc23)ccc1Oc1ncccc1C(F)(F)F` [Compound 24, {2-[3-methyl-4-(3-trifluoromethylpyridin-2-yloxy)-phenyl]-ethyl}-thiazolo[5,4-d]pyrimidin-7-ylamine], the pest or weed control at 200 ppm in assay [1] lay in the range of 80 to 100%; in assay [2] it was 80 to 100%; in assay [3], 80 to 100%; in assay [4] it was 50 to 79%.
Take `Fc1cnc(C(F)(F)F)c(F)c1Oc1ccc(CCNc2ncnc3scnc23)cc1` [Compound 33, {2-[4-(3,5-difluoro-2-trifluoromethylpyridin-4-yloxy)-phenyl]-ethyl}-thiazolo[5,4-d]pyrimidin-7-ylamine]: the pest or weed control at 200 ppm in assay [1], in assay [2], in assay [3] and in assay [4] was 80 to 100% each time.
On to `c1ccc2c(c1)oc1ccc(CCNc3ncnc4scnc34)cc12` [Compound 44, (2-dibenzofuran-2-ylethyl)-thiazolo[5,4-d]pyrimidin-7-yl-amine], for which the pest or weed control at 200 ppm in assay [1] is 0 to 49%; in assay [2], 50 to 79%; in assay [3] it was 80 to 100%; in assay [4], 80 to 100%.
